{"source": "PubChem BioAssay AID1918947", "about": "(Molecular Pharmacology Branch, DTP, NCI, 2023)", "tested_on": "A498 complex spheroid viability", "experiment": "Anticancer human tumor A498 cell line growth inhibition;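 for all read-outs here: spheroids exposed to agents for seven days before readout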;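 for viability, T/C: 100% = DMSO vehicle-treated spheroids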", "details": "for pIC50: curve of first compound; for viability, T/C: stronger effect = lower value", "how_it_was_run": "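Complex spheroids of tumor cells with HUVEC and human MSCs, exposed to iadademstat combined with other agents. Each agent tested in half-log steps from near clinical Cmax (else 10 microM top), DMSO ≤0.25%.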", "note": "pIC50: −log10 of the molar value.", "data": [{"compound": "Cn1ncnc1C1c2n[nH]c(=O)c3cc(F)cc(c23)NC1c1ccc(F)cc1", "note": "(stereo not given) + NC1CC1c1ccc(-c2cccc(O)c2)cc1", "values": [{"measurement": "pIC50", "setting": "second compound 0.1 µM", "result": "< 7.00"}, {"measurement": "pIC50", "setting": "second compound 0.316 µM", "result": "< 7.00"}, {"measurement": "pIC50", "setting": "second compound 1 µM", "result": "< 7.00"}, {"measurement": "pIC50", "setting": "second compound 3.16 µM", "result": "< 7.00"}, {"measurement": "pIC50", "setting": "second compound 10 µM", "result": "< 7.00"}, {"measurement": "viability, T/C", "setting": "second compound 0.1 µM, first compound 0.000316 µM", "result": 94.6, "unit": "%"}, {"measurement": "viability, T/C", "setting": "second compound 0.1 µM, first compound 0.001 µM", "result": 97.7, "unit": "%"}, {"measurement": "viability, T/C", "setting": "second compound 0.1 µM, first compound 0.00316 µM", "result": 104, "unit": "%"}, {"measurement": "viability, T/C", "setting": "second compound 0.1 µM, first compound 0.01 µM", "result": 94.9, "unit": "%"}, {"measurement": "viability, T/C", "setting": "second compound 0.1 µM, first compound 0.0316 µM", "result": 96.2, "unit": "%"}, {"measurement": "viability, T/C", "setting": "second compound 0.1 µM, first compound 0.1 µM", "result": 94.2, "unit": "%"}, {"measurement": "viability, T/C", "setting": "second compound 0.316 µM, first compound 0.000316 µM", "result": 103, "unit": "%"}, {"measurement": "viability, T/C", "setting": "second compound 0.316 µM, first compound 0.001 µM", "result": 111, "unit": "%"}, {"measurement": "viability, T/C", "setting": "second compound 0.316 µM, first compound 0.00316 µM", "result": 104, "unit": "%"}, {"measurement": "viability, T/C", "setting": "second compound 0.316 µM, first compound 0.01 µM", "result": 92.1, "unit": "%"}, {"measurement": "viability, T/C", "setting": "second compound 0.316 µM, first compound 0.0316 µM", "result": 100, "unit": "%"}, {"measurement": "viability, T/C", "setting": "second compound 0.316 µM, first compound 0.1 µM", "result": 93.3, "unit": "%"}, {"measurement": "viability, T/C", "setting": "second compound 1 µM, first compound 0.000316 µM", "result": 89.3, "unit": "%"}, {"measurement": "viability, T/C", "setting": "second compound 1 µM, first compound 0.001 µM", "result": 93.3, "unit": "%"}, {"measurement": "viability, T/C", "setting": "second compound 1 µM, first compound 0.00316 µM", "result": 96.4, "unit": "%"}, {"measurement": "viability, T/C", "setting": "second compound 1 µM, first compound 0.01 µM", "result": 84.6, "unit": "%"}, {"measurement": "viability, T/C", "setting": "second compound 1 µM, first compound 0.0316 µM", "result": 89.1, "unit": "%"}, {"measurement": "viability, T/C", "setting": "second compound 1 µM, first compound 0.1 µM", "result": 87.8, "unit": "%"}, {"measurement": "viability, T/C", "setting": "second compound 3.16 µM, first compound 0.000316 µM", "result": 87, "unit": "%"}, {"measurement": "viability, T/C", "setting": "second compound 3.16 µM, first compound 0.001 µM", "result": 89.8, "unit": "%"}, {"measurement": "viability, T/C", "setting": "second compound 3.16 µM, first compound 0.00316 µM", "result": 90.2, "unit": "%"}, {"measurement": "viability, T/C", "setting": "second compound 3.16 µM, first compound 0.01 µM", "result": 89, "unit": "%"}, {"measurement": "viability, T/C", "setting": "second compound 3.16 µM, first compound 0.0316 µM", "result": 91.9, "unit": "%"}, {"measurement": "viability, T/C", "setting": "second compound 3.16 µM, first compound 0.1 µM", "result": 77.8, "unit": "%"}, {"measurement": "viability, T/C", "setting": "second compound 10 µM, first compound 0.000316 µM", "result": 80.8, "unit": "%"}, {"measurement": "viability, T/C", "setting": "second compound 10 µM, first compound 0.001 µM", "result": 86.6, "unit": "%"}, {"measurement": "viability, T/C", "setting": "second compound 10 µM, first compound 0.00316 µM", "result": 91.3, "unit": "%"}, {"measurement": "viability, T/C", "setting": "second compound 10 µM, first compound 0.01 µM", "result": 87.3, "unit": "%"}, {"measurement": "viability, T/C", "setting": "second compound 10 µM, first compound 0.0316 µM", "result": 78.6, "unit": "%"}, {"measurement": "viability, T/C", "setting": "second compound 10 µM, first compound 0.1 µM", "result": 78.4, "unit": "%"}]}, {"compound": "CCN(c1cc(-c2ccc(CN3CCOCC3)cc2)cc(C(=O)NCc2c(C)cc(C)[nH]c2=O)c1C)C1CCOCC1", "note": "+ NC1CCC(NC2CC2c2ccccc2)CC1", "values": [{"measurement": "pIC50", "setting": "second compound 0.1 µM", "result": "< 5.52"}, {"measurement": "pIC50", "setting": "second compound 0.316 µM", "result": "< 5.52"}, {"measurement": "pIC50", "setting": "second compound 1 µM", "result": "< 5.52"}, {"measurement": "pIC50", "setting": "second compound 3.16 µM", "result": "< 5.52"}, {"measurement": "pIC50", "setting": "second compound 10 µM", "result": "< 5.52"}, {"measurement": "viability, T/C", "setting": "second compound 0.1 µM, first compound 0.00949 µM", "result": 85.8, "unit": "%"}, {"measurement": "viability, T/C", "setting": "second compound 0.1 µM, first compound 0.03 µM", "result": 90.7, "unit": "%"}, {"measurement": "viability, T/C", "setting": "second compound 0.1 µM, first compound 0.0949 µM", "result": 92.1, "unit": "%"}, {"measurement": "viability, T/C", "setting": "second compound 0.1 µM, first compound 0.3 µM", "result": 91.4, "unit": "%"}, {"measurement": "viability, T/C", "setting": "second compound 0.1 µM, first compound 0.949 µM", "result": 94.4, "unit": "%"}, {"measurement": "viability, T/C", "setting": "second compound 0.1 µM, first compound 3 µM", "result": 92.9, "unit": "%"}, {"measurement": "viability, T/C", "setting": "second compound 0.316 µM, first compound 0.00949 µM", "result": 93.2, "unit": "%"}, {"measurement": "viability, T/C", "setting": "second compound 0.316 µM, first compound 0.03 µM", "result": 101, "unit": "%"}, {"measurement": "viability, T/C", "setting": "second compound 0.316 µM, first compound 0.0949 µM", "result": 100, "unit": "%"}, {"measurement": "viability, T/C", "setting": "second compound 0.316 µM, first compound 0.3 µM", "result": 98.9, "unit": "%"}, {"measurement": "viability, T/C", "setting": "second compound 0.316 µM, first compound 0.949 µM", "result": 92.4, "unit": "%"}, {"measurement": "viability, T/C", "setting": "second compound 0.316 µM, first compound 3 µM", "result": 92.9, "unit": "%"}, {"measurement": "viability, T/C", "setting": "second compound 1 µM, first compound 0.00949 µM", "result": 91.7, "unit": "%"}, {"measurement": "viability, T/C", "setting": "second compound 1 µM, first compound 0.03 µM", "result": 97, "unit": "%"}, {"measurement": "viability, T/C", "setting": "second compound 1 µM, first compound 0.0949 µM", "result": 97.3, "unit": "%"}, {"measurement": "viability, T/C", "setting": "second compound 1 µM, first compound 0.3 µM", "result": 90.1, "unit": "%"}, {"measurement": "viability, T/C", "setting": "second compound 1 µM, first compound 0.949 µM", "result": 86.8, "unit": "%"}, {"measurement": "viability, T/C", "setting": "second compound 1 µM, first compound 3 µM", "result": 87.2, "unit": "%"}, {"measurement": "viability, T/C", "setting": "second compound 3.16 µM, first compound 0.00949 µM", "result": 87.3, "unit": "%"}, {"measurement": "viability, T/C", "setting": "second compound 3.16 µM, first compound 0.03 µM", "result": 95, "unit": "%"}, {"measurement": "viability, T/C", "setting": "second compound 3.16 µM, first compound 0.0949 µM", "result": 90.6, "unit": "%"}, {"measurement": "viability, T/C", "setting": "second compound 3.16 µM, first compound 0.3 µM", "result": 89.1, "unit": "%"}, {"measurement": "viability, T/C", "setting": "second compound 3.16 µM, first compound 0.949 µM", "result": 85.8, "unit": "%"}, {"measurement": "viability, T/C", "setting": "second compound 3.16 µM, first compound 3 µM", "result": 78.2, "unit": "%"}, {"measurement": "viability, T/C", "setting": "second compound 10 µM, first compound 0.00949 µM", "result": 80.4, "unit": "%"}, {"measurement": "viability, T/C", "setting": "second compound 10 µM, first compound 0.03 µM", "result": 87.5, "unit": "%"}, {"measurement": "viability, T/C", "setting": "second compound 10 µM, first compound 0.0949 µM", "result": 88.4, "unit": "%"}, {"measurement": "viability, T/C", "setting": "second compound 10 µM, first compound 0.3 µM", "result": 82.1, "unit": "%"}, {"measurement": "viability, T/C", "setting": "second compound 10 µM, first compound 0.949 µM", "result": 82.7, "unit": "%"}, {"measurement": "viability, T/C", "setting": "second compound 10 µM, first compound 3 µM", "result": 72.9, "unit": "%"}]}]}
